In patent US20240226117A1, “TREATMENT OF CONGENITAL ADRENAL HYPOPLASIA” (ReveraGen BioPharma, Inc., priority 2021, published 2024):

Key:
[1] = tested on: DMD participants; assay: Morning serum cortisol (adrenal suppression); type: in vivo, human; conditions: 24-week trial
Procedure: Two tests for adrenal insufficiency were used: morning cortisol (before drug) and ACTH stimulation tests. Adrenal suppression was measured via morning serum cortisol levels at Baseline, 12-weeks, and 24-weeks. The ACTH stimulation test was measured at Baseline and 24-weeks. Morning cortisol was measured in the clinic before daily drug administration. Morning cortisol levels were similar at Baseline (˜200 nmol/L) in all groups and remained stable over the 24-week trial in the Placebo Group.

[2] = tested on: ambulant boys with DMD; assay: VISION-DMD Phase 2b (VBP15-004) motor efficacy, 24-week double-blind period; type: in vivo, human
[3] = tested on: ambulant boys with DMD; conditions: in vivo
[4] = target: T1, glucocorticoid receptor (Homo sapiens, UniProt P04150); conditions: background statement; cited from earlier work
T1 sequence (P04150 1-777): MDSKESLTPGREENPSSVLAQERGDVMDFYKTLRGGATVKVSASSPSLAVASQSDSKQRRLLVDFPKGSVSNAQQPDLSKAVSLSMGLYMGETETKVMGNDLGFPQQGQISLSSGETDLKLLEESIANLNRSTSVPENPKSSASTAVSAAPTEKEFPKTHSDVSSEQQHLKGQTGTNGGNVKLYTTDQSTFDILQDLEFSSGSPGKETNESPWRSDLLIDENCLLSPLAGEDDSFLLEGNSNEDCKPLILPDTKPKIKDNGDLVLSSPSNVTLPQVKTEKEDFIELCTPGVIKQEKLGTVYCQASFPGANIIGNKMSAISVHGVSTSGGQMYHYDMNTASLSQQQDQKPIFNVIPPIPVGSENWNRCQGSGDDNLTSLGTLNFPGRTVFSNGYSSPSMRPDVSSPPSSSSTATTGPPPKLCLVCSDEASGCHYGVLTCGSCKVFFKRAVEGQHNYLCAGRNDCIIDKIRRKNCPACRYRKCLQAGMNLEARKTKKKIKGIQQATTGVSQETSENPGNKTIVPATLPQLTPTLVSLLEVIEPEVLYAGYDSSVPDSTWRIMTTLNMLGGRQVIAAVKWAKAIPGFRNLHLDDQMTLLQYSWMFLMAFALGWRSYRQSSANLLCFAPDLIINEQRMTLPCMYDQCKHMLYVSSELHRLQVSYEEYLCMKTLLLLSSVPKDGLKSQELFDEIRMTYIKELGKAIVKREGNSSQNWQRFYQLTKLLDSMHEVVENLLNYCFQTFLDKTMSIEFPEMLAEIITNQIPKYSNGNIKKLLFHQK

[5] = target: T2, mineralocorticoid receptor (Homo sapiens, UniProt P08235); conditions: background statement; cited from earlier work
T2 sequence (P08235 1-984): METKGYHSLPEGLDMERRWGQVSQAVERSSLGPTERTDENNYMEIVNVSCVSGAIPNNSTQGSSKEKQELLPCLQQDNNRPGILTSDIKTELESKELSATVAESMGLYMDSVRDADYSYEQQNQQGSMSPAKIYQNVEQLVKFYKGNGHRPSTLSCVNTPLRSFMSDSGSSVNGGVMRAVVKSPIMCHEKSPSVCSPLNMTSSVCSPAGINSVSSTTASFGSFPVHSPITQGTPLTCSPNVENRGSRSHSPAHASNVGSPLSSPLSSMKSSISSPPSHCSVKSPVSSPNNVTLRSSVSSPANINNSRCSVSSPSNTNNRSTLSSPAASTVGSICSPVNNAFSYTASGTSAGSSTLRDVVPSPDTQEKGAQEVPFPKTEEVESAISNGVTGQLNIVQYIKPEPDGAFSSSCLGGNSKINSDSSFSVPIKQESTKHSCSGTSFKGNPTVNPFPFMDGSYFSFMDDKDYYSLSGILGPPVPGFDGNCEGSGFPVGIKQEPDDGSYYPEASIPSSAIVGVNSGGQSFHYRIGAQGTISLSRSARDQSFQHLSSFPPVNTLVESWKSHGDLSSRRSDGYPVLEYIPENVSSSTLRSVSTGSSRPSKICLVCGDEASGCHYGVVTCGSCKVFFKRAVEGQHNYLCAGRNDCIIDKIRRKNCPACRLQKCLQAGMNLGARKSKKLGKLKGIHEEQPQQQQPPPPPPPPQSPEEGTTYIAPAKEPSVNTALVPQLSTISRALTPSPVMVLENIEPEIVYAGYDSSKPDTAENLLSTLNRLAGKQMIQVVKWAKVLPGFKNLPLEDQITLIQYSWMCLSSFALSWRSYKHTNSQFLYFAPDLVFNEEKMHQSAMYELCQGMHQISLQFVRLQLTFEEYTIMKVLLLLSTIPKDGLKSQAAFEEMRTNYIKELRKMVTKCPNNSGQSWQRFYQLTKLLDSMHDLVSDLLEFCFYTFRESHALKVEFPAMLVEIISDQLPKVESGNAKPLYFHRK

- adrenal suppression by morning cortisol, compared with prednisone ([1]; vamorolone 2.0 mg/kg/day, p=0.002): less adrenal suppression than prednisone
- clinically relevant psychiatric events, subjects [3]: no vamorolone-treated subjects
- moderate/severe behavior problems, subjects ([3]; male, human, 24 weeks): 1.7%
SMILES: C[C@@H]1C[C@H]2[C@@H]3CCC4=CC(=O)C=C[C@]4(C)C3=CC[C@]2(C)[C@@]1(O)C(=O)CO [Vamorolone, 17α,21-dihydroxy-16α-methylpregna-1,4,9(11)-triene-3,20-dione]
- adrenal suppression by morning cortisol, compared with prednisone ([1]; vamorolone 6.0 mg/kg/day): not significantly different from prednisone
- TTSTAND after 24 weeks ([2]; vamorolone 6 mg/kg/day group, from 6.0 seconds at baseline): 4.6 s
- TTSTAND velocity, 6MWT, TTRW endpoints compared with prednisone ([2]; vamorolone 6 mg/kg/day versus prednisone 0.75 mg/kg/day, 24 weeks): no statistically significant differences
- TTSTAND velocity, treatment difference versus placebo in change from baseline ([2]; vamorolone 6 mg/kg/day, 24 weeks, p=0.002): 0.06 rises/second
- binding to the glucocorticoid receptor [4]: potently binds
- activity at the mineralocorticoid receptor [5]: potent antagonist
